Assay results taken from US20260049062A1, “SARS-COV-2 INHIBITORS FOR TREATING CORONAVIRUS INFECTIONS” (Insilico Medicine IP Limited, priority 2021, published 2026).

Tested on: SARS-CoV-2
Test: In vitro antiviral cell-based assay (live SARS-CoV-2), plaque reduction assay in VeroE6 cells
Conditions: Severe acute respiratory syndrome coronavirus 2, Vero, read-out: Vero EC50 (μM)

Structure (SMILES): CC(C(=O)NC1CCC(F)(F)CC1)(c1cncnc1)N(C(=O)[C@H](F)Cl)c1ccc(-c2cncs2)cc1 (single isomer, unassigned) [Example 1a]
- EC50: 0.1 to 1 µM
